Reference: patent publication US9452154B2, “Methods for treating HCV” (Gilead Sciences, Inc., priority 2010, dated 2016)
“And” between values parts separate entries of the source, which are not always exact repeats. Equal entries are not always repeated. Where two headings read alike, the source gives them in different places.

Experiments:
[1] = tested on: GT-1b Huh-lunet cells; assay: Biological Example 4: antiviral combination studies with Compound 5 (MacSynergy II); format: cell-based, HCV; details: in combination with Compound 5, 1b replicon cells
[2] = tested on: NS3 GT1b mutant replicons; format: cell-based, HCV
[3] = tested on: NS3 GT1a mutant replicons; format: cell-based, HCV
[4] = tested on: HCV 1b replicon system; assay: Biological Example 5: antiviral combination studies with Compound 6 (MacSynergy II); format: cell-based; details: in combination with Compound 6
[5] = Biological Example 3: cytotoxicity (calcein AM), CC50; format: cell-based; details: human, Huh-7 cells carrying a HCV genotype 1a replicon; HCV genotype 1a replicon cells; calcein AM
[6] = tested on: Genotype 1b replicon cells; assay: Biological Example 6: compound concentration required to suppress replicon RNA by 1-1.5 log over 6 days (QRT-PCR); format: cell-based, HCV; details: 6 day assay
Experimental: Flasks were incubated at 37° C., media and compounds were refreshed every two days. After 6 days of incubation the replicon cells were collected for RNA extraction and replicon RNA QRT-PCR analysis.

[7] = tested on: Genotype 1b replicon cells; assay: Biological Example 6: compound combination replicon cure assay; details: after 6 days treatment, G418 for 14 days; Compound 6 4 pM, Compound 4 1000 nM, Compound 1 10 nM, Compound 3 26.25 nM
[8] = tested on: Huh-7 cells carrying a HCV genotype 1a replicon; assay: Biological Example 3: cytotoxicity in combination studies (MacSynergy II); details: in combination with Compound 4
[9] = tested on: HCV genotype 1a replicon; assay: Biological Example 3: HCV genotype 1a replicon assay, EC50; format: cell-based; details: Hepatitis C virus, 72 h, 3 days, read-out: EC50
[10] = tested on: HCV genotype 1a replicon; assay: Biological Example 3: antiviral combination studies with Compound 4 (MacSynergy II); details: in combination with Compound 4
[11] = tested on: HCV 1b RLuc; assay: microbe, parasite or virus in culture; format: cell-based; details: Hepatitis C virus, read-out: antiviral potency [EC50]
[12] = tested on: GT1b and GT1a mutant replicons; assay: Biological Example 8: summary of cross resistance of mutant replicons; format: cell-based, HCV; details: all single NS3 PI-resistant mutants
[13] = tested on: Huh-luc replicon cells; assay: Biological Example 5: cellular cytotoxicity (CellTiter-Glo); details: highest concentrations tested (column Concentration(s)); relative to untreated controls
Experimental: Replicon cells were seeded and treated with drugs as described for the antiviral combination studies above. After three day incubation at 37° C., the culture media was removed and cells were lysed and assayed for cytotoxicity using a CellTiter-Glo Luminescent Cell Viability Assay (Promega) according to the manufacturer's instructions. Relative Light Units were converted into percentages relative to the untreated controls (defined as 100%).

[14] = Drug-drug interaction: exposure on co-administration with Compound 2
[15] = mutant R155K + Y488H (first line, r20)
[16] = mutant R155K + Y488H (second line, r26)

SMILES: CC[C@@H]1C[C@]1(NC(=O)[C@@H]1C[C@@H](Oc2cc(-c3csc(NC(C)C)n3)nc3c(Cl)c(OCCN4CCOCC4)ccc23)CC1C(=O)[C@@H](NC(=O)O[C@@H]1C[C@@H]2C[C@@H]2C1)C(C)(C)C)C(=O)O (some centres unmarked) [Compound 3]
- Antagonism Volume [1]: −2 ± 2 nM^2
- Interaction [1]: Additive
- Synergy Volume [1]: 19 ± 13 nM^2
- fold change in EC50 vs wild-type GT1b ([2]; mutant R155L): 1.2 fold and 0.9 fold
- fold change in EC50 vs wild-type GT1a ([3]; mutant A156T): >141 fold
- fold change in EC50 vs wild-type GT1a ([3]; mutant D168A): >300 fold
- fold change in EC50 vs wild-type GT1a ([3]; mutant D168E): 25.1 fold
- fold change in EC50 vs wild-type GT1a ([3]; mutant D168G): >138 fold
- fold change in EC50 vs wild-type GT1a ([3]; mutant D168H): >250 fold
- fold change in EC50 vs wild-type GT1a ([3]; mutant D168N): 20.5 fold
- fold change in EC50 vs wild-type GT1a ([3]; mutant D168V): >156 fold
- fold change in EC50 vs wild-type GT1a ([3]; mutant D168Y): >175 fold
- fold change in EC50 vs wild-type GT1a ([3]; mutant R155I): 0.9 fold
- fold change in EC50 vs wild-type GT1a ([3]; mutant R155K): >150 fold
- fold change in EC50 vs wild-type GT1a ([3]; mutant R155K + L31M): >100 fold
- fold change in EC50 vs wild-type GT1a ([3]; mutant R155K + L31M + Y448H): >145 fold
- fold change in EC50 vs wild-type GT1a ([3]; mutant R155K + M28T): >100 fold
- fold change in EC50 vs wild-type GT1a ([3]; mutant R155K + M28T + Y448H): 89.0 fold
- fold change in EC50 vs wild-type GT1a ([3]; mutant R155K + Q30H + Y448H): >130 fold
- fold change in EC50 vs wild-type GT1a ([3]; mutant R155K + Q30R): >100 fold
- fold change in EC50 vs wild-type GT1a ([3]; mutant R155K + Y93H): >100 fold
- fold change in EC50 vs wild-type GT1a [3, 15]: >130 fold
- fold change in EC50 vs wild-type GT1a [3, 16]: >100 fold
- fold change in EC50 vs wild-type GT1a ([3]; mutant R155M): 1.5 fold
- fold change in EC50 vs wild-type GT1a ([3]; mutant R155S): 4.0 fold
- fold change in EC50 vs wild-type GT1a ([3]; mutant R155T): 2.3 fold
- fold change in EC50 vs wild-type GT1a ([3]; mutant R155W): 32.1 fold
- fold change in EC50 vs wild-type GT1a ([3]; mutant R155k + Q30H): >100 fold
- Antagonism Volume [4]: −0.1 ± 0.2 nM^2
- Interaction [4]: Strong Synergy
- Synergy Volume [4]: 132 nM^2 and 132 ± 44 nM^2
- CC50 at 3 days [5]: > 22200 nM
- Compound concentration able to induce replicon RNA 1-1.5 log drop [6]: 26.25 nM
- Uncured colony number [7]: 989
- Antagonism Volume (cytotoxicity) [8]: 0 ± 0 nM^2%
- Interaction (cytotoxicity) [8]: Additivity (Additivity: ≦25 and >−25 nM^2%)
- Synergy Volume (cytotoxicity) [8]: 3 ± 5 nM^2%
- EC50 [9]: 49 ± 18 nM
- Antagonism Volume [10]: −3 ± 2 nM^2%
- Synergy Volume [10]: 26 ± 6 nM^2%

SMILES: COC(=O)N[C@H](C(=O)N1CC2(CC2)C[C@H]1c1ncc(-c2ccc3c(c2)C(F)(F)c2cc(-c4ccc5nc([C@@H]6[C@H]7CC[C@H](C7)N6C(=O)[C@@H](NC(=O)OC)C(C)C)[nH]c5c4)ccc2-3)[nH]1)C(C)C [Compound 6, (1-{3-[6-(9,9-Difluoro-7-{2-[5-(2-methoxycarbonylamino-3-methyl-butyryl)-5-aza-spiro[2.4]hept-6-yl]-3H-imidazol-4-yl}-9H-fluoren-2-yl)-1H-benzoimidazol-2-yl]-2-aza-bicyclo[2.2.1]heptane-2-carbonyl}-2-methyl-propyl)-carbamic acid methyl ester]
- EC50 [11]: 0.0045 nM
- susceptibility of mutants [12]: full susceptibility
- Antagonism Volume [1]: 0 ± 0 nM^2
- Synergy Volume [1]: 34 ± 19 nM^2
- fold change in EC50 vs wild-type GT1b ([2]; mutant A156D): 0.4 fold
- fold change in EC50 vs wild-type GT1b ([2]; mutant A156G): 0.9 fold
- fold change in EC50 vs wild-type GT1b ([2]; mutant A156T): 0.4 fold
- fold change in EC50 vs wild-type GT1b ([2]; mutant A156V): 0.4 fold
- fold change in EC50 vs wild-type GT1b ([2]; mutant D168A): 0.8 fold
- fold change in EC50 vs wild-type GT1b ([2]; mutant D168E): 1.0 fold
- fold change in EC50 vs wild-type GT1b ([2]; mutant D168E + L31V + Y448H): >210 fold
- fold change in EC50 vs wild-type GT1b ([2]; mutant D168E + Y93H + Y448H): >613 fold
- fold change in EC50 vs wild-type GT1b ([2]; mutant D168E + Y448H): 0.7 fold
- fold change in EC50 vs wild-type GT1b ([2]; mutant D168G): 0.6 fold
- fold change in EC50 vs wild-type GT1b ([2]; mutant D168H): 1.2 fold
- fold change in EC50 vs wild-type GT1b ([2]; mutant D168H + C445F): 0.3 fold
- fold change in EC50 vs wild-type GT1b ([2]; mutant D168L + C445F): 0.4 fold
- fold change in EC50 vs wild-type GT1b ([2]; mutant D168N): 0.9 fold
- fold change in EC50 vs wild-type GT1b ([2]; mutant D168T): 0.8 fold
- fold change in EC50 vs wild-type GT1b ([2]; mutant D168V): 0.9 fold
- fold change in EC50 vs wild-type GT1b ([2]; mutant D168V + C445F): 0.4 fold
- fold change in EC50 vs wild-type GT1b ([2]; mutant D168V + L31V + Y448H): >126 fold
- fold change in EC50 vs wild-type GT1b ([2]; mutant D168V + Y93H + Y448H): >664 fold
- fold change in EC50 vs wild-type GT1b ([2]; mutant D168V + Y448H): 0.5 fold
- fold change in EC50 vs wild-type GT1b ([2]; mutant D168Y): 0.7 fold
- fold change in EC50 vs wild-type GT1b ([2]; mutant L31V + D168E): 228.7 fold
- fold change in EC50 vs wild-type GT1b ([2]; mutant L31V + D168V): 117.5 fold
- fold change in EC50 vs wild-type GT1b ([2]; mutant R155C): 0.9 fold
- fold change in EC50 vs wild-type GT1b ([2]; mutant R155G): 0.7 fold
- fold change in EC50 vs wild-type GT1b ([2]; mutant R155K): 2.3 fold
- fold change in EC50 vs wild-type GT1b ([2]; mutant R155L): 0.7 fold
- fold change in EC50 vs wild-type GT1b ([2]; mutant R155Q): 0.7 fold
- fold change in EC50 vs wild-type GT1b ([2]; mutant R155W): 0.4 fold
- fold change in EC50 vs wild-type GT1b ([2]; mutant Y93H + D168E): >570 fold
- fold change in EC50 vs wild-type GT1b ([2]; mutant Y93H + D168V): >1140 fold
- fold change in EC50 vs wild-type GT1a ([3]; mutant A156T): 0.2 fold
- fold change in EC50 vs wild-type GT1a ([3]; mutant D168A): 1.1 fold
- fold change in EC50 vs wild-type GT1a ([3]; mutant D168E): 1.3 fold
- fold change in EC50 vs wild-type GT1a ([3]; mutant D168G): 0.8 fold
- fold change in EC50 vs wild-type GT1a ([3]; mutant D168H): 1.1 fold
- fold change in EC50 vs wild-type GT1a ([3]; mutant D168N): 1.2 fold
- fold change in EC50 vs wild-type GT1a ([3]; mutant D168V): 1.2 fold
- fold change in EC50 vs wild-type GT1a ([3]; mutant D168Y): 0.8 fold
- fold change in EC50 vs wild-type GT1a ([3]; mutant R155I): 0.5 fold
- fold change in EC50 vs wild-type GT1a ([3]; mutant R155K): 0.6 fold
- fold change in EC50 vs wild-type GT1a ([3]; mutant R155K + L31M): 96.9 fold
- fold change in EC50 vs wild-type GT1a ([3]; mutant R155K + L31M + Y448H): >330 fold
- fold change in EC50 vs wild-type GT1a ([3]; mutant R155K + M28T): 12.3 fold
- fold change in EC50 vs wild-type GT1a ([3]; mutant R155K + M28T + Y448H): 53.0 fold
- fold change in EC50 vs wild-type GT1a ([3]; mutant R155K + Q30H + Y448H): 55.0 fold
- fold change in EC50 vs wild-type GT1a ([3]; mutant R155K + Q30R): 85.3 fold
- fold change in EC50 vs wild-type GT1a ([3]; mutant R155K + Y93H): >3000 fold
- fold change in EC50 vs wild-type GT1a [3, 15]: 1.1 fold
- fold change in EC50 vs wild-type GT1a [3, 16]: 0.5 fold
- fold change in EC50 vs wild-type GT1a ([3]; mutant R155M): 0.3 fold
- fold change in EC50 vs wild-type GT1a ([3]; mutant R155S): 0.3 fold
- fold change in EC50 vs wild-type GT1a ([3]; mutant R155T): 0.3 fold
- fold change in EC50 vs wild-type GT1a ([3]; mutant R155W): 0.7 fold
- fold change in EC50 vs wild-type GT1a ([3]; mutant R155k + Q30H): 49.4 fold
- CC50 at 3 days [5]: > 44400 nM
- Compound concentration able to induce replicon RNA 1-1.5 log drop [6]: 0.004 nM
- Antagonism Volume (cytotoxicity) [8]: 0 ± 0 nM^2%
- Interaction (cytotoxicity) [8]: Additivity (Additivity: ≦25 and >−25 nM^2%)
- Synergy Volume (cytotoxicity) [8]: 8 ± 4 nM^2%
- EC50 [9]: 0.033 ± 0.011 nM
- Antagonism Volume [10]: −7 ± 7 nM^2%
- Interaction [10]: Additivity (Additivity: ≦25 and >−25 nM^2%)
- Synergy Volume [10]: 19 ± 17 nM^2%
- Cell Viability % [13]: 99 ± 1%
- increase of exposure when combined with Compound 2 [14]: approximately 5 ×
